One data set concerns K562. Nature of the data set: Antiproliferative activity against human K562 cells assessed as reduction in cell viability incubated for 2 days by MTT assay. The format is functional, cell-based. The settings on record: K562, 48 h.
In the next data set the test system is HL-60. Nature of the data set: Antiproliferative activity against human HL60 cells incubated for 2 days by MTT assay. To be noted: HL-60, 48 h. The data set is classed as functional, cell-based.
The test system of data set [1] is RAW264.7. Nature of the data set: Antiinflammatory activity against mouse RAW264.7 cells assessed as reduction in TNFalpha level at 2.7 ug/ml. The data set is classed as functional, cell-based.
The test system of another data set is PBMC. Description: Cytotoxicity against human PBMC assessed as reduction in cell viability incubated for 2 days by MTT assay. The format is cell-based. To be noted: 48 h.
The test system of a further data set is KG-1a. Description: Antiproliferative activity against human KG1a cells assessed as reduction in cell viability incubated for 2 days by MTT assay. The data set is classed as functional, cell-based. The settings on record: 48 h.
Data set [2] in a line: Antioxidant activity assessed as trolox equivalent antioxidant capacity. The data set is classed as functional.
A short description of data set [3]: Cytotoxicity against mouse RAW264.7 cells assessed as reduction in cell viability incubated for 2 days by MTT assay. The data set is classed as cell-based.
Data set [4] deals with RAW264.7. Nature of the data set: Antiinflammatory activity against mouse RAW264.7 cells assessed as reduction in IL6 level at 2.7 ug/ml. The format is functional, cell-based.
A short description of data set [5]: Antioxidant activity assessed as DPPH radical scavenging activity. The data set is classed as functional. The settings on record: dose or concentration not given here.
Data set [6] in a line: Antioxidant activity assessed as ferric reducing ability. The data set is classed as functional.
For a further data set, the system named is EOL1. Nature of the data set: Antiproliferative activity against human EOL1 cells incubated for 2 days by MTT assay. The format is functional, cell-based. To be noted: EOL1, 48 h.
Data set [7] can be described thus: Cytotoxicity against mouse RAW264.7 cells assessed as cell viability at 2.7 ug/ml incubated for 2 days by MTT assay relative to control. The data set is classed as cell-based. To be noted: read-out: Activity.
Data set [8] has as its system RAW264.7. Description: Antiinflammatory activity against mouse RAW264.7 cells assessed as reduction in TNFalpha level. The data set is classed as functional, cell-based.
Data set [9] has as its system RAW264.7. Nature of the data set: Antiinflammatory activity against mouse RAW264.7 cells assessed as reduction in IL6 level. The data set is classed as functional, cell-based.

Converted amounts (≈) assume the structure as drawn. The source made the active and inactive calls. The rule behind the calls is not given here. Where only a bound is given, the exact number is not on record here.

Consider `C/C(=C\CO)CCC[C@H](C)CCC[C@H](C)CCCC(C)C` [TRANS-PHYTOL], for which the IC50 with K562 was determined as 45.8 µg/mL (≈ 154 µM).
Turning to `CC[C@]1(O)C[C@H]2CN(CCc3c([nH]c4ccccc34)[C@@](C(=O)OC)(c3cc4c(cc3OC)N(C=O)[C@H]3[C@@](O)(C(=O)OC)[C@H](OC(C)=O)[C@]5(CC)C=CCN6CC[C@]43[C@@H]65)C2)C1` [VINCRISTINE], it took 0.008 µg/mL (≈ 0.0097 µM) to reach half-maximal inhibition in the data set with HL-60 (IC50).
Consider `C=C(C)[C@@H]1CC[C@]2(C)CC[C@]3(C)[C@H](CC[C@@H]4[C@@]5(C)CC[C@H](O)C(C)(C)[C@@H]5CC[C@]43C)[C@@H]12` [LUPEOL], for which the IC50 in the data set with K562 is 82.8 µg/mL (≈ 194 µM).
`C=C(CC[C@@H](C)[C@H]1CC[C@@]2(C)[C@@H]3CC[C@H]4C(C)(C)[C@@H](O)CC[C@]4(C)C3=CC[C@]12C)C(C)C`: the inhibition entry in the data set on RAW264.7 [1] and with RAW264.7 [4] was “Active” throughout. Also, the IC50 is greater than 100 µg/mL with PBMC; greater than 100 µg/mL with KG-1a; greater than 100 µg/mL in the data set on K562; 53.4 µg/mL (≈ 121 µM) in the data set with HL-60; 36.3 µg/mL (≈ 82.4 µM) with EOL1. Moreover, the values for the Activity in data set [2] and in [6] were 0.1 µM and 0.2 µM, respectively. Moreover, the IC20 at 48 h in data set [3] was determined as 2.7 µg/mL (≈ 6.13 µM). The inhibition in [5] was 8.6%. The viability at 48 h, 2.7 ug/ml in [7] is 80%.
Consider `C[C@@H]1C[C@H]2[C@@H]3CCC4=CC(=O)C=C[C@]4(C)[C@@]3(F)[C@@H](O)C[C@]2(C)[C@@]1(O)C(=O)CO`, for which the inhibition entry in the data set with RAW264.7 [8] and in the data set on RAW264.7 [9] was “Dose-dependent effect” each time.
On to `O=C1O[C@H]([C@@H](O)CO)C(O)=C1O`, for which the Activity was determined as 1.7 µM in data set [2] and 23.7 µM in [6].
